Measurements as given in publication PMC4503722, “Novel Phenotypic Outcomes Identified for a Public Collection of Approved Drugs from a Publicly Accessible Panel of Assays” (PLoS ONE, 2015).

Assays:
DLD-1 = experiment: cells; format: cell-based; conditions: for Basal_Viability ATP DLD-1 IC50/EC50: assay number 23
RKO = experiment: cells; format: cell-based; conditions: for Basal_Viability ATP RKO IC50/EC50: assay number 29
[1] = tested on: endothelial tube formation in co-cultures of ECFCs and ADSCs treated with VEGF; experiment: cells; format: cell-based, human
HT-29 = experiment: cells; format: cell-based; conditions: for Basal_Viability ATP HT-29 IC50/EC50: assay number 28
[2] = tested on: HCT116 cells treated with a GSK3β inhibitor; experiment: cells; format: cell-based; conditions: for GSK3b inh pretreated_Viability ATP HCT116 IC50/EC50: assay number 26, GSK3b inhibitor pretreated
[3] = tested on: ECFC/ADSC co-culture cell nuclei number
HCT116 = experiment: cells; format: cell-based; conditions: basal; for Basal_Viability ATP HCT116 IC50/EC50: assay number 25
SW480 = experiment: cells; format: cell-based; conditions: for Basal_Viability ATP SW480 IC50/EC50: assay number 24
SNU-C1 = experiment: cells; format: cell-based; conditions: for Basal_Viability ATP SNU-C1 IC50/EC50: assay number 30
Colo320 = experiment: cells; format: cell-based; conditions: for Basal_Viability ATP Colo 320 IC50/EC50: assay number 27

SMILES	VEGF_ADSC\ECFC Angio CD31 TubeArea IC50/EC50 [1] [µM]	GSK3b inh pretreated_Viability ATP HCT116 IC50/EC50 [2] [µM]	VEGF_ADSC\ECFC Angio Hoechst NucArea IC50/EC50 [3] [µM]	Basal_Viability ATP HCT116 IC50/EC50 (HCT116) [µM]	Basal_Viability ATP DLD-1 IC50/EC50 (DLD-1; concentration response) [µM]	Basal_Viability ATP RKO IC50/EC50 (RKO; concentration response) [µM]	Basal_Viability ATP HT-29 IC50/EC50 (HT-29; concentration response) [µM]	GSK3b inh pretreated_Viability ATP HCT116 IC50/EC50 ([2]; concentration response) [µM]	Basal_Viability ATP HCT116 IC50/EC50 (HCT116; concentration response) [µM]	Basal_Viability ATP SW480 IC50/EC50 (SW480; concentration response) [µM]	Basal_Viability ATP SNU-C1 IC50/EC50 (SNU-C1; concentration response) [µM]	Basal_Viability ATP Colo 320 IC50/EC50 (Colo320; concentration response) [µM]	further results
COC(=O)C1=C(C)NC(C)=C(C(=O)O[C@@H]2CCCN(Cc3ccccc3)C2)[C@@H]1c1cccc([N+](=O)[O-])c1.Cl [NCGC00185768-01]	> 10	5.3147	> 10	4.2797									Basal_Viability ATP DLD-1 IC50/EC50 (DLD-1): 7.9596 µM; Basal_Viability ATP RKO IC50/EC50 (RKO): 8.0546 µM; Basal_Viability ATP HT-29 IC50/EC50 (HT-29): 5.2728 µM; Basal_Viability ATP SW480 IC50/EC50 (SW480): > 20 µM; Basal_Viability ATP SNU-C1 IC50/EC50 (SNU-C1): 5.7601 µM; Basal_Viability ATP Colo 320 IC50/EC50 (Colo320): 19.5148 µM
CCCCCCCCCCCCCCCCCCOP(=O)([O-])OC1CC[N+](C)(C)CC1 [NCGC00187909-02]	> 10		> 10		> 20	2.0992	6.9016	5.7889	3.1704	0.8519	> 20	2.358	
CCOC(=O)/C=C(C)/C=C/C[C@@H](C)CCCC(C)C [NCGC00248275-02]	> 10		> 10		> 20	> 20	> 20	> 20	> 20	> 20	> 20	> 20	
NC(=O)n1c(O)c(C(=O)c2cccs2)c2cc(Cl)ccc21 [NCGC00263542-01]													IC50/EC50, Basal_Viability ATP DLD-1 (assay number 23) (DLD-1; basal): 6.9467 µM; IC50/EC50, Basal_Viability ATP RKO (assay number 29) (RKO; basal): 4.703 µM; IC50/EC50, VEGF_ADSC\ECFC Angio CD31 TubeArea (assay number 2) [1]: > 10 µM; IC50/EC50, Basal_Viability ATP HT-29 (assay number 28) (HT-29; basal): 5.6005 µM; IC50/EC50, GSK3b inh pretreated_Viability ATP HCT116 (assay number 26) ([2]; GSK3b inh pretreated): 3.787 µM; IC50/EC50, VEGF_ADSC\ECFC Angio Hoechst NucArea (assay number 3) [3]: > 10 µM; IC50/EC50, Basal_Viability ATP HCT116 (assay number 25) (HCT116): 2.309 µM; IC50/EC50, Basal_Viability ATP SW480 (assay number 24) (SW480; basal): 1.02 µM; IC50/EC50, Basal_Viability ATP SNU-C1 (assay number 30) (SNU-C1; basal): 0.5375 µM; IC50/EC50, Basal_Viability ATP Colo 320 (assay number 27) (Colo320; basal): 1.643 µM
C/C(=N\O)[C@@H](C)NCC(C)(C)CN[C@H](C)/C(C)=N/O [NCGC00319018-01]	> 10	> 20	> 10	> 20									Basal_Viability ATP DLD-1 IC50/EC50 (DLD-1; basal): > 20 µM; Basal_Viability ATP RKO IC50/EC50 (RKO; basal): > 20 µM; Basal_Viability ATP HT-29 IC50/EC50 (HT-29; basal): > 20 µM; Basal_Viability ATP SW480 IC50/EC50 (SW480; basal): > 20 µM; Basal_Viability ATP SNU-C1 IC50/EC50 (SNU-C1; basal): > 20 µM; Basal_Viability ATP Colo 320 IC50/EC50 (Colo320; basal): > 20 µM
